Measurements as given in PMC9019904, “AD Informer Set: Chemical tools to facilitate Alzheimer's disease drug discovery” (Alzheimer's & Dementia : Translational Research & Clinical …, 2022).

What was measured:
[1] = test system: BV2 (mouse microglia) cell line; test: pHrodo-myelin phagocytosis/cell viability high content imaging assay: viability (cell count, nuclear area, nuclear intensity); conditions: BV2; compound 10 uM; 48 hours treatment
Description: (§1) All AD Informer Set compounds were tested in two immortalized microglial cell lines, murine (BV2), and human (HMC3), in a high‐content imaging assay in duplicate by the Chu lab. Experimental details and all data can be found as supporting information files.
(§2) The role of microglia in AD has been well documented and was thus chosen as a cell type in which to profile the AD Informer Set.[43], [44], [45] As an example, neuroinflammation, as detected by the presence of activated complement proteins, interleukins, cytokines, and chemokines in microglia and astrocytes, is increased early in AD and is considered pathogenic due to its chronic nature.[33], [34] Cytotoxic effects can be assessed by considering multiple parameters.
(§3) Microglial viability and phagocytosis studies: The pHrodo-myelin phagocytosis/cell viability assay, modified based on a published method, was run with immortalized BV2 (mouse microglia) and HMC3 (human microglia) cell lines in the Chu lab at IUSM. The 384-well plate high content analysis assay with BV2 and HMC3 microglial cell lines is used to quantify both phagocytosis and cell viability simultaneously. High content imaging is performed with the ArrayScan automatic imaging system and imaging analysis done with the software on the system. After allowing cells to adhere overnight, they are treated with compounds for total 48 hours including final 20 hours seeded with pHrodo-myelin (labeled phagocytosis ligand, purified […]
(§4) (approximately 22 hours after pHrodo-myelin addition). Three measurements are extracted from the assay: 1) phagocytosis signal by mean total phagocytosis spot intensity per cell, 2) total cell counts per well as the main measurement of cell viability, and 3) mean average nuclear intensity per cell as profiling of cell health since apoptotic cells showing nuclear intensity increase (early apoptosis) and decrease (later apoptosis), respectively. These measurements allow for evaluation of compound-induced phagocytosis (1) and cytotoxicity (2 and 3). Assays were carried out at a single concentration (10 μM). Idelalisib (10 μM) and cytochalasin-D (4 μM) were used as positive controls in the assay. All data, which was an average of 2 data points, was normalized to untreated wells and reported as % control, which is included in the Supporting Information both as a raw data file and summarized in the compound/gene-annotation file.

[2] = test system: HMC3 (human microglia) cell line; test: as above
Description: as §1, §2, §3, §4

[3] = test system: BV2 (mouse microglia) cell line; test: pHrodo-myelin phagocytosis/cell viability high content imaging assay: phagocytosis signal; assay type: cell-based
Description: (§5) It is important to note that stressed cells, such as those that are dying, are prone to show an increase in phagocytosis. […] MerTK promotes phagocytosis and thus MerTK inhibition is proposed to lead to inhibition of phagocytosis.[47]
(§6) phagocytosis and cell viability simultaneously. High content imaging is performed with the
(§7) (approximately 22 hours after pHrodo-myelin addition). Three measurements are extracted
(§8) intensity increase (early apoptosis) and decrease (later apoptosis), respectively. These
and 3). […]

[4] = test system: HMC3 (human microglia) cell line; test: as above; assay type: cell-based
Description: as §5, §6, §7, §8
and 3). […]

[5] = HMC3, compound 10 uM, 48 hours treatment
[6] = BV2 cells, 10 uM compound, 48 hours treatment, pHrodo-myelin final 20 hours
[7] = HMC3 cells, 10 uM compound, 48 hours treatment, pHrodo-myelin final 20 hours

Structure (SMILES) | Stimulation of mouse microglial phagocytosis at 10 μM (>150% control) ([3]; BV2, 10 μM) | Stimulation of mouse microglial phagocytosis at 10 μM (>150% control) ([3]; 10 μM, BV2) | 4. Phagocytosis (% control) [3, 6] [% control] | 4. Phagocytosis (% control) [4, 7] [% control] | further results
Cc1ccc(F)c(NC(=O)Nc2ccc(-c3cccc4[nH]nc(N)c34)cc2)c1 [UNC10302874A] |  |  |  |  | 1. Cell count (% control) [1]: 24.4 % control; 2. Nuclear Area (% Control) [1]: 127.6 % Control; 3. Nuclear DNA Intensity (% control) [1]: 103.1 % control; 1. Cell count (% control) [2, 5]: 43.1 % control; 2. Nuclear Area (% Control) [2, 5]: 121.8 % Control; 3. Nuclear DNA Intensity (% control) [2, 5]: 105.6 % control; 4. Phagocytosis (% control) ([3]; BV2, compound 10 uM, pHrodo-myelin): 235.2 % control; 4. Phagocytosis (% control) ([4]; HMC3, compound 10 uM, pHrodo-myelin): 29.4 % control
O=C(NC12C[C@H]3C[C@@H](C1)C[C@@H](C2)C3)N[C@H]1CC[C@H](Oc2ccc(C(=O)O)cc2)CC1 [t-AUCB] | Y (The compound was found to stimulate phagocytosis (response threshold: >150% control) when murine immortalized microglial cells were dosed at 10 μM (Y: yes)) |  |  |  | 
Cc1cc(O)cc2c1[C@]1(C)CC[C@H]3C(C)(C)CCC[C@]3(C)[C@H]1C2 [AQX-MN100] |  | Y (The compound was found to stimulate phagocytosis (response threshold: >150% control) when murine immortalized microglial cells were dosed at 10 μM (Y: yes)) |  |  | 
CC(=O)O.Cc1c(-c2ccc(O)cc2)n(Cc2ccc(OCCN3CCCCCC3)cc2)c2ccc(O)cc12 [UNC10245115A] |  |  | 0.00966 | 0.00872 | 
CC(C)CCOc1ccc(N)cc1 [UNC10302876A] |  |  | 110.6 | 89.8 | 
CC/C(=C(\c1ccccc1)c1ccc(OCCN(C)C)cc1)c1ccccc1 [Tamoxifen] | Y (The compound was found to stimulate phagocytosis (response threshold: >150% control) when murine immortalized microglial cells were dosed at 10 μM (Y: yes)) |  |  |  | 
O=C(NC12C[C@H]3C[C@@H](C1)C[C@@H](C2)C3)N[C@H]1CC[C@H](Oc2ccc(C(=O)O)cc2)CC1 [UNC10303108A] |  |  | 153.6 | 109.9 | 
COc1ccc(/C=C/C(=O)c2ccc(OC)cc2OC)cc1 [Metochalcone] | Y (The compound was found to stimulate phagocytosis (response threshold: >150% control) when murine immortalized microglial cells were dosed at 10 μM (Y: yes)) |  |  |  | Human microglial cytotoxicity at 10 μM (<70% control) ([2]; HMC3, 10 μM, cell count <70% control): Y (The compound was found to be cytotoxic (cell count threshold: <70% control) when human immortalized microglial cells were dosed at 10 μM (Y: yes))
O=c1ccc2c(OCCCCc3ccccc3)c3ccoc3cc2o1 [Psora-4 (5-(4-Phenylbutoxy)psoralen)] |  | Y (The compound was found to stimulate phagocytosis (response threshold: >150% control) when murine immortalized microglial cells were dosed at 10 μM (Y: yes)) |  |  | Inhibition of human microglial phagocytosis at 10 μM (<70% control) ([4]; 10 μM, HMC3): Y (The compound was found to inhibit phagocytosis (response threshold: <70% control) when human immortalized microglial cells were dosed at 10 μM (Y: yes))
O=c1ccc2c(OCCCCOc3ccccc3)c3ccoc3cc2o1 [PAP-1 (5-(4-Phenoxybutoxy)psoralen)] |  | Y (The compound was found to stimulate phagocytosis (response threshold: >150% control) when murine immortalized microglial cells were dosed at 10 μM (Y: yes)) |  |  | 
